Data from ChEMBL document CHEMBL3885861, “Open TG-GATES”.

Species on record: Rattus norvegicus
Assay: Open TG-GATES - Regimen: Daily Repeat
Format: toxicity, organism-based, Sprague-Dawley
Design: regimen Daily Repeat, gender Male, age 6 weeks
Details: in vivo, po, route gavage; for APTT / Bas / Eos / Fbg / Hb / Ht / Lym / MCH / MCHC / MCV / Mono / Neu / PT / Plat / RBC / Ret / WBC: tissue Blood; for KIDNEY_L / KIDNEY_R / KIDNEY_TOTAL: tissue Kidney; for LIVER: tissue Liver; for ALP / ALT / AST / BUN / CRE / DBIL / GLC / K / Na / PL / RALB / TBIL / TC / TG / TP / gamma-GTP: tissue Plasma
[1] = 75 mg/kg, 72 h, dose level Middle, time 3 day
[2] = 75 mg/kg, […], dose level Middle, time 7 day
[3] = 75 mg/kg, […], dose level Middle, time 14 day
[4] = 75 mg/kg, […], dose level Middle, time 28 day
[5] = 250 mg/kg, 72 h, dose level High, time 3 day
[6] = 250 mg/kg, […], dose level High, time 7 day
[7] = 250 mg/kg, […], dose level High, time 14 day
[8] = 250 mg/kg, […], dose level High, time 28 day

## CN1C(=O)CN=C(c2ccccc2)c2cc(Cl)ccc21 [DIAZEPAM]
[1]
  TERMINAL_BW: 244.2 g
  APTT: 16.3 s
  Bas: 0%
  Eos: 1.2%
  Fbg: 235.6 mg/dL
  Hb: 13.7 g/dL
  Ht: 41.3%
  Lym: 77.4%
  MCH: 21.3 pg
  MCHC: 33.3%
  MCV: 64.1 fL
  Mono: 6%
  Neu: 15.8%
  PT: 11.6 s
  Plat: 112.9 x10_4/uL
  RBC: 644 x10_4/ul
  Ret: 6.3%
  WBC: 129.7 x10_2/uL
  KIDNEY_L: 1.1 g
  KIDNEY_R: 1 g
  KIDNEY_TOTAL: 2.1 g
  LIVER: 12.5 g
  ALP: 782.4 IU/L
  ALT: 33.2 IU/L
  AST: 62.6 IU/L
  BUN: 19 mg/dL
  CRE: 0.6 mg/dL
  DBIL: 0.008 mg/dL
  GLC: 194.2 mg/dL
  K: 5 meq/L
  Na: 138.7 meq/L
  PL: 164.2 mg/dL
  RALB: 4.1 g/dL
  TBIL: 0.4 mg/dL
  TC: 90.8 mg/dL
  TG: 99.2 mg/dL
  TP: 6 g/dL
  gamma-GTP: 0.8 IU/L
[2]
  TERMINAL_BW: 272.1 g
  APTT: 16.8 s
  Bas: 0%
  Eos: 1%
  Fbg: 230.6 mg/dL
  Hb: 14.3 g/dL
  Ht: 43.5%
  Lym: 77.8%
  MCH: 21 pg
  MCHC: 32.9%
  MCV: 63.8 fL
  Mono: 5.8%
  Neu: 15.4%
  PT: 11.4 s
  Plat: 107.7 x10_4/uL
  RBC: 682.8 x10_4/ul
  Ret: 5.5%
  WBC: 100.7 x10_2/uL
  KIDNEY_L: 1.2 g
  KIDNEY_R: 1.2 g
  KIDNEY_TOTAL: 2.3 g
  LIVER: 13.9 g
  ALP: 755 IU/L
  ALT: 36.8 IU/L
  AST: 57.8 IU/L
  BUN: 16.4 mg/dL
  CRE: 0.6 mg/dL
  DBIL: 0.01 mg/dL
  GLC: 199 mg/dL
  K: 4.5 meq/L
  Na: 138.9 meq/L
  PL: 155.2 mg/dL
  RALB: 4.2 g/dL
  TBIL: 0.3 mg/dL
  TC: 81.8 mg/dL
  TG: 86.4 mg/dL
  TP: 6.2 g/dL
  gamma-GTP: 1.2 IU/L
[3]
  TERMINAL_BW: 328 g
  APTT: 16.7 s
  Bas: 0%
  Eos: 0.6%
  Fbg: 228.6 mg/dL
  Hb: 14.6 g/dL
  Ht: 43.7%
  Lym: 82.6%
  MCH: 21.1 pg
  MCHC: 33.4%
  MCV: 63 fL
  Mono: 3.8%
  Neu: 12.8%
  PT: 11.8 s
  Plat: 111.6 x10_4/uL
  RBC: 694.4 x10_4/ul
  Ret: 4.9%
  WBC: 142.4 x10_2/uL
  KIDNEY_L: 1.3 g
  KIDNEY_R: 1.4 g
  KIDNEY_TOTAL: 2.7 g
  LIVER: 15.5 g
  ALP: 627.6 IU/L
  ALT: 32.8 IU/L
  AST: 59.2 IU/L
  BUN: 16 mg/dL
  CRE: 0.6 mg/dL
  DBIL: 0.006 mg/dL
  GLC: 194.8 mg/dL
  K: 4.4 meq/L
  Na: 141.1 meq/L
  PL: 144.8 mg/dL
  RALB: 4 g/dL
  TBIL: 0.4 mg/dL
  TC: 74.6 mg/dL
  TG: 87.4 mg/dL
  TP: 6.1 g/dL
  gamma-GTP: 1 IU/L
[4]
  TERMINAL_BW: 403 g
  APTT: 17.8 s
  Bas: 0%
  Eos: 1.2%
  Fbg: 236.6 mg/dL
  Hb: 15.2 g/dL
  Ht: 45.7%
  Lym: 80.4%
  MCH: 19 pg
  MCHC: 33.3%
  MCV: 57 fL
  Mono: 3.6%
  Neu: 14.4%
  PT: 12 s
  Plat: 106.3 x10_4/uL
  RBC: 802.8 x10_4/ul
  Ret: 2.6%
  WBC: 121 x10_2/uL
  KIDNEY_L: 1.4 g
  KIDNEY_R: 1.5 g
  KIDNEY_TOTAL: 2.9 g
  LIVER: 17.7 g
  ALP: 410.4 IU/L
  ALT: 32.2 IU/L
  AST: 56.8 IU/L
  BUN: 20.2 mg/dL
  CRE: 0.6 mg/dL
  DBIL: 0.012 mg/dL
  GLC: 192.4 mg/dL
  K: 4.2 meq/L
  Na: 139.9 meq/L
  PL: 151.4 mg/dL
  RALB: 4.1 g/dL
  TBIL: 0.3 mg/dL
  TC: 74 mg/dL
  TG: 136 mg/dL
  TP: 6.7 g/dL
  gamma-GTP: 0.4 IU/L
[5]
  TERMINAL_BW: 237.9 g
  APTT: 16.2 s
  Bas: 0%
  Eos: 1%
  Fbg: 230.6 mg/dL
  Hb: 14 g/dL
  Ht: 42%
  Lym: 78.8%
  MCH: 21.5 pg
  MCHC: 33.3%
  MCV: 64.8 fL
  Mono: 6.2%
  Neu: 14.2%
  PT: 11.6 s
  Plat: 103.3 x10_4/uL
  RBC: 648.4 x10_4/ul
  Ret: 5.6%
  WBC: 126.1 x10_2/uL
  KIDNEY_L: 1.1 g
  KIDNEY_R: 1.1 g
  KIDNEY_TOTAL: 2.1 g
  LIVER: 12.6 g
  ALP: 891.8 IU/L
  ALT: 47.4 IU/L
  AST: 68.8 IU/L
  BUN: 17.2 mg/dL
  CRE: 0.6 mg/dL
  DBIL: 0.024 mg/dL
  GLC: 201.4 mg/dL
  K: 4.8 meq/L
  Na: 138.9 meq/L
  PL: 173.6 mg/dL
  RALB: 3.8 g/dL
  TBIL: 0.3 mg/dL
  TC: 113.4 mg/dL
  TG: 59.8 mg/dL
  TP: 5.9 g/dL
  gamma-GTP: 1.8 IU/L
[6]
  TERMINAL_BW: 268.4 g
  APTT: 17.2 s
  Bas: 0%
  Eos: 1.2%
  Fbg: 211.8 mg/dL
  Hb: 13.7 g/dL
  Ht: 40.8%
  Lym: 76.6%
  MCH: 21.6 pg
  MCHC: 33.5%
  MCV: 64.6 fL
  Mono: 6%
  Neu: 16.6%
  PT: 11.6 s
  Plat: 128 x10_4/uL
  RBC: 633.8 x10_4/ul
  Ret: 5.9%
  WBC: 144 x10_2/uL
  KIDNEY_L: 1.2 g
  KIDNEY_R: 1.2 g
  KIDNEY_TOTAL: 2.4 g
  LIVER: 14.5 g
  ALP: 732.8 IU/L
  ALT: 35.4 IU/L
  AST: 64.8 IU/L
  BUN: 17.2 mg/dL
  CRE: 0.6 mg/dL
  DBIL: 0.008 mg/dL
  GLC: 194.4 mg/dL
  K: 4.5 meq/L
  Na: 139.1 meq/L
  PL: 133.4 mg/dL
  RALB: 3.9 g/dL
  TBIL: 0.3 mg/dL
  TC: 78 mg/dL
  TG: 35.4 mg/dL
  TP: 6.1 g/dL
  gamma-GTP: 1 IU/L
[7]
  TERMINAL_BW: 309.4 g
  APTT: 18.5 s
  Bas: 0%
  Eos: 0.8%
  Fbg: 245.8 mg/dL
  Hb: 14.6 g/dL
  Ht: 43.8%
  Lym: 79%
  MCH: 20.6 pg
  MCHC: 33.4%
  MCV: 61.8 fL
  Mono: 4.6%
  Neu: 15.6%
  PT: 11.9 s
  Plat: 106.7 x10_4/uL
  RBC: 709.4 x10_4/ul
  Ret: 4.3%
  WBC: 144 x10_2/uL
  KIDNEY_L: 1.3 g
  KIDNEY_R: 1.4 g
  KIDNEY_TOTAL: 2.7 g
  LIVER: 16.6 g
  ALP: 735.2 IU/L
  ALT: 37.8 IU/L
  AST: 54.2 IU/L
  BUN: 17.6 mg/dL
  CRE: 0.6 mg/dL
  DBIL: 0.01 mg/dL
  GLC: 193.6 mg/dL
  K: 4.6 meq/L
  Na: 142 meq/L
  PL: 145.4 mg/dL
  RALB: 4.1 g/dL
  TBIL: 0.2 mg/dL
  TC: 78.8 mg/dL
  TG: 48 mg/dL
  TP: 6.4 g/dL
  gamma-GTP: 1.6 IU/L
[8]
  TERMINAL_BW: 402.6 g
  APTT: 20.2 s
  Bas: 0%
  Eos: 1%
  Fbg: 252 mg/dL
  Hb: 15.4 g/dL
  Ht: 45.8%
  Lym: 81.4%
  MCH: 19.7 pg
  MCHC: 33.6%
  MCV: 58.5 fL
  Mono: 4.2%
  Neu: 13.4%
  PT: 12.2 s
  Plat: 109.3 x10_4/uL
  RBC: 782.2 x10_4/ul
  Ret: 3%
  WBC: 179.4 x10_2/uL
  KIDNEY_L: 1.6 g
  KIDNEY_R: 1.6 g
  KIDNEY_TOTAL: 3.2 g
  LIVER: 19.7 g
  ALP: 448.2 IU/L
  ALT: 35 IU/L
  AST: 53.6 IU/L
  BUN: 19 mg/dL
  CRE: 0.6 mg/dL
  DBIL: 0.012 mg/dL
  GLC: 195.4 mg/dL
  K: 4.1 meq/L
  Na: 140.5 meq/L
  PL: 135.4 mg/dL
  RALB: 4.3 g/dL
  TBIL: 0.3 mg/dL
  TC: 73.4 mg/dL
  TG: 48 mg/dL
  TP: 6.8 g/dL
  gamma-GTP: 0.8 IU/L
